Reference: the supplement of paper PMC10307832

Columns and labels:
Test in all cases: relative viability (nuclei count vs DMSO), 5 days (fraction); higher = more cells survive
AGI-6780 + AZD7762 = compound: O=C(Nc1cccc(C(F)(F)F)c1)Nc1cc(S(=O)(=O)NC2CC2)ccc1-c1ccsc1 [AGI-6780] + NC(=O)Nc1cc(-c2cccc(F)c2)sc1C(=O)N[C@H]1CCCNC1 [AZD7762] (partner 0.2 µM)
Outline: (§1)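 Lung cancer cell lines were seeded in 1536-well plates and dosed by pin tool the next day, with either a single drug or a fixed anchor-drug dose combined with five library-drug doses (not always all listed) spaced in √10 steps. Five days later, one step fixed the cells and stained their nuclei (final 0.05% Triton X-100, 1% formaldehyde, 1 ug/ml Hoechst), and nuclei were counted on 4× images. Relative viability is the nuclei count in treated wells divided by the count in vehicle wells, and each value is the median of duplicate plates.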

AGI-6780 + Vorinostat = compound: O=C(Nc1cccc(C(F)(F)F)c1)Nc1cc(S(=O)(=O)NC2CC2)ccc1-c1ccsc1 [AGI-6780] + O=C(CCCCCCC(=O)Nc1ccccc1)NO [Vorinostat] (partner 1 µM)
Outline: as §1

AGI-6780 + Foretinib = compound: O=C(Nc1cccc(C(F)(F)F)c1)Nc1cc(S(=O)(=O)NC2CC2)ccc1-c1ccsc1 [AGI-6780] + COc1cc2c(Oc3ccc(NC(=O)C4(C(=O)Nc5ccc(F)cc5)CC4)cc3F)ccnc2cc1OCCCN1CCOCC1 [Foretinib] (partner 0.25 µM)
Outline: as §1

AGI-6780 + Pictilisib = compound: O=C(Nc1cccc(C(F)(F)F)c1)Nc1cc(S(=O)(=O)NC2CC2)ccc1-c1ccsc1 [AGI-6780] + CS(=O)(=O)N1CCN(Cc2cc3nc(-c4cccc5[nH]ncc45)nc(N4CCOCC4)c3s2)CC1 [Pictilisib] (partner 1 µM)
Outline: as §1

Cell Line | relative viability (AGI-6780 + AZD7762; first compound 0.08 µM) | relative viability (AGI-6780 + AZD7762; first compound 0.253 µM) | relative viability (AGI-6780 + AZD7762; first compound 0.8 µM) | relative viability (AGI-6780 + AZD7762; first compound 2.53 µM) | relative viability (AGI-6780 + AZD7762; first compound 8 µM) | relative viability (AGI-6780 + Vorinostat; first compound 0.08 µM) | relative viability (AGI-6780 + Vorinostat; first compound 0.253 µM) | relative viability (AGI-6780 + Vorinostat; first compound 0.8 µM) | relative viability (AGI-6780 + Vorinostat; first compound 2.53 µM) | relative viability (AGI-6780 + Vorinostat; first compound 8 µM) | relative viability (AGI-6780 + Foretinib; first compound 0.08 µM) | relative viability (AGI-6780 + Foretinib; first compound 0.253 µM) | relative viability (AGI-6780 + Foretinib; first compound 0.8 µM) | relative viability (AGI-6780 + Foretinib; first compound 2.53 µM) | relative viability (AGI-6780 + Foretinib; first compound 8 µM) | relative viability (AGI-6780 + Pictilisib; first compound 0.08 µM) | relative viability (AGI-6780 + Pictilisib; first compound 0.253 µM) | relative viability (AGI-6780 + Pictilisib; first compound 0.8 µM) | relative viability (AGI-6780 + Pictilisib; first compound 2.53 µM) | relative viability (AGI-6780 + Pictilisib; first compound 8 µM)
NCI-H460 | 0.444 | 0.671 | 0.684 | 0.726 | 0.564 | 0.787 | 0.678 | 0.779 | 0.658 | 0.659 | 0.98 | 1.04 | 1.04 | 0.998 | 0.991 | 0.325 | 0.338 | 0.382 | 0.242 | 0.374
NCI-H1793 | 0.747 | 0.517 | 0.703 | 0.36 | 0.409 | 0.69 | 0.807 | 0.797 | 0.666 | 0.685 | 0.729 | 0.745 | 0.771 | 0.555 | 0.603 | 0.272 | 0.364 | 0.351 | 0.344 | 0.303
NCI-H2347 | 0.766 | 0.78 | 0.538 | 0.867 | 0.929 | 0.575 | 0.587 | 0.637 | 0.553 | 0.784 | 0.607 | 0.828 | 0.831 | 0.79 | 1.57 | 0.747 | 0.648 | 0.591 | 0.553 | 0.897
HCC-15 | 1.18 | 1.32 | 1.34 | 1.43 | 1.25 | 0.917 | 0.88 | 0.875 | 0.832 | 0.828 | 1.1 | 1.03 | 1.1 | 0.871 | 0.968 | 0.88 | 0.82 | 0.834 | 0.594 | 0.801
NCI-H1915 | 0.715 | 0.713 | 0.729 | 0.637 | 0.698 | 0.563 | 0.538 | 0.516 | 0.468 | 0.482 | 1.04 | 1.11 | 1.09 | 1.1 | 1.03 | 1.02 | 1.04 | 0.976 | 0.855 | 1.03
NCI-H1734 | 0.634 | 0.589 | 0.618 | 0.451 | 0.606 | 0.798 | 0.842 | 0.865 | 0.728 | 0.799 | 0.814 | 0.954 | 0.83 | 0.663 | 0.819 | 0.528 | 0.479 | 0.419 |  | 0.447
NCI-H2342 | 0.47 | 0.667 | 0.612 | 0.499 | 0.733 | 0.749 | 0.824 | 0.874 | 0.663 | 1.1 | 1.11 | 1.11 | 1.05 | 0.978 | 1.12 |  |  |  |  | 
COR-L 105 |  |  |  |  |  | 0.908 | 1.34 | 0.975 | 0.97 | 0.841 | 1.09 | 0.922 | 0.962 | 1.25 | 0.981 | 0.482 | 0.393 | 0.463 | 0.463 | 0.39
PC-14 | 0.355 | 0.33 | 0.453 | 0.455 | 0.397 | 0.919 | 0.708 | 0.845 | 0.779 | 0.799 | 0.902 | 1.1 | 1.02 | 0.941 | 0.979 | 0.927 | 0.681 | 0.893 | 0.55 | 0.857
NCI-H2087 | 1.42 | 1.43 | 1.34 | 1.64 | 1.47 | 0.546 | 0.646 | 0.719 | 0.744 | 0.868 | 1.04 | 1.24 | 1.17 | 1.17 | 1.08 | 0.787 | 0.914 | 0.879 | 0.644 | 0.773
NCI-H1395 | 0.366 | 0.4 | 0.412 | 0.428 | 0.387 | 0.714 | 0.726 | 0.826 | 0.618 | 0.701 | 0.917 | 0.986 | 0.979 | 0.901 | 0.931 | 0.638 | 0.626 | 0.574 |  | 0.65
NCI-H1648 | 0.676 | 0.846 | 0.89 | 0.769 | 0.81 | 0.377 | 0.689 | 0.566 | 0.423 | 0.419 |  |  |  |  |  |  |  |  |  | 
NCI-H520 |  |  |  |  |  | 0.694 | 0.71 | 0.91 | 0.64 | 0.764 | 0.684 | 0.942 | 1.07 | 0.655 | 0.77 | 0.278 | 0.315 | 0.332 | 0.257 | 0.29
A549 |  |  |  |  |  |  |  |  |  |  | 1.04 | 0.956 | 0.88 | 0.729 | 1.07 | 0.583 | 0.463 | 0.604 | 0.459 | 0.463
LC-2-ad | 0.895 | 0.885 | 0.921 | 0.877 | 0.859 | 0.754 | 0.72 | 0.776 | 0.661 | 0.726 | 0.939 | 0.849 | 1.04 | 0.913 | 0.901 | 0.598 | 0.726 | 0.532 | 0.381 | 0.456
EMC-BAC-2 |  | 1.15 | 1.16 | 0.877 | 1.02 |  | 0.453 | 0.809 | 0.4 | 0.421 | 1.05 | 1.04 | 0.961 | 0.842 | 1.18 | 0.579 | 0.575 | 0.602 | 0.395 | 0.617
EBC-1 |  |  |  |  |  |  |  |  |  |  | 0.104 | 0.105 | 0.106 | 0.11 | 0.104 | 0.388 | 0.337 | 0.343 | 0.379 | 0.347
NCI-H1792 | 1.05 | 0.596 | 0.769 |  | 0.752 |  |  |  |  |  |  |  |  |  |  | 0.302 | 0.279 | 0.281 | 0.245 | 0.242
NCI-H23 | 0.259 | 0.24 | 0.23 | 0.294 | 0.23 | 0.61 | 0.74 | 0.735 | 0.614 | 0.508 | 1.12 | 0.968 | 1.02 | 0.96 | 0.865 | 0.614 | 0.571 | 0.624 | 0.437 | 0.609
